Consider 41 compounds from ChEMBL document CHEMBL1765052, “Developing potent human uric acid transporter 1 (hURAT1) inhibitors” (J Med Chem, 2011).

The target in test [1] is T1, Solute carrier family 22 member 12 (Homo sapiens, UniProt Q96S37).
T1 sequence (Q96S37 whole entry): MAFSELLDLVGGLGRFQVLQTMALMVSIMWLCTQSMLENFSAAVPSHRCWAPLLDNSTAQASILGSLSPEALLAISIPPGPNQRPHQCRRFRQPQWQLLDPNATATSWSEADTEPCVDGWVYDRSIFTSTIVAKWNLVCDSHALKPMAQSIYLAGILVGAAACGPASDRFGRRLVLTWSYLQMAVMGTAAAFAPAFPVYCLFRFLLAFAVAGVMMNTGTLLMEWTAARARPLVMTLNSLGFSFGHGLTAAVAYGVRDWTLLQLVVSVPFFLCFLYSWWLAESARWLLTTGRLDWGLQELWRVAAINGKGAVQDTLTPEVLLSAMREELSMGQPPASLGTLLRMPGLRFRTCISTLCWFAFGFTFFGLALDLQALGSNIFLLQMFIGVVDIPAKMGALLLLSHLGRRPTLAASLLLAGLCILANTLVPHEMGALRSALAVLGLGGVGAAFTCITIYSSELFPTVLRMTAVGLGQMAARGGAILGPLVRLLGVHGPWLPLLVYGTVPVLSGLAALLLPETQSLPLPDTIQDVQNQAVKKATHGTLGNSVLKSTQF
Nature of the test: Inhibition of human URAT1 expressed in xenopus oocyte assessed as inhibition of [14C]-labelled urate uptake at 50 uM after 60 mins by liquid scintillation counting. The conditions noted are these: 1 h.

Test [2] deals with T1, Solute carrier family 22 member 12. Nature of the test: Inhibition of human URAT1 expressed in xenopus oocyte assessed as inhibition of [14C]-labelled urate uptake after 60 mins by liquid scintillation counting.

Structures are written as SMILES. pIC50: −log10 of the molar value.

As usually defined, the inhibition is the drop in the measured response relative to a control, in per cent. `CCc1oc2cc(O)ccc2c1C(=O)c1cc(Br)c(O)c(Br)c1`: in test [1], the inhibition at 50 µM is 99.8%.
The same measure, in the same setting: the same measure for `CCc1oc2ccccc2c1C(=O)c1ccc(OC)cc1`: 13.3%; for `CCc1oc2ccc(OC)cc2c1C(=O)c1ccc(OC)cc1`: 24.3%; for `CCc1cc2c(C(=O)c3ccc(OC)cc3)c(OC)ccc2o1`: 6.1%.
Take `CCc1cc2cc(OC)cc(C(=O)c3ccc(OC)cc3)c2o1`: the inhibition at 50 µM in test [1] was 5.2%.
Same read-out and setting: the same measure for `CCc1oc2cc(OC)ccc2c1C(=O)c1ccc(OC)cc1`: 6.2%.
On the same count and under the same terms, under `CCc1cc2c(C(=O)c3ccc(OC)cc3)cc(OC)cc2o1` stands 1.5%; under `CCc1oc2c(OC)cccc2c1C(=O)c1ccc(OC)cc1`, 17.2%; under `CCc1cc2c(C(=O)c3ccc(OC)cc3)ccc(OC)c2o1`, 7.4%.
In general, pIC50 refers to −log10 of the IC50, conventionally taken in molar units. Consider `CCc1oc2ccc(OC)cc2c1C(=O)c1ccc(O)cc1`, for which, in test [1], the inhibition at 50 µM was 92.7%. In addition, the pIC50 in test [2] was 5.61.
Take `CCc1oc2ccc(O)cc2c1C(=O)c1ccc(OC)cc1`: in test [1], the inhibition at 50 µM was found to be 12.9%.
Turning to `CCc1oc2ccc(O)cc2c1C(=O)c1ccc(O)cc1`, the inhibition at 50 µM in test [1] was found to be 96.5%. Further, in test [2], the pIC50 was 5.60.
The matching figures for `CCc1cc2c(C(=O)c3ccc(O)cc3)c(OC)ccc2o1`: 88.2% and 5.18.
Take `CCc1cc2c(C(=O)c3ccc(OC)cc3)c(O)ccc2o1`: the inhibition at 50 µM in test [1] turned out to be 28.7%.
Still for that read-out and setting: the same measure for `CCc1cc2c(C(=O)c3ccc(O)cc3)c(O)ccc2o1`: 51.5%.
As to `CCc1cc2cc(OC)cc(C(=O)c3ccc(O)cc3)c2o1`, the inhibition at 50 µM in test [1] was 60%. Moreover, the pIC50 in test [2] was 4.47.
With `CCc1cc2cc(O)cc(C(=O)c3ccc(OC)cc3)c2o1`, the inhibition at 50 µM in test [1] was 9.3%.
Still for that read-out and setting: under `CCc1cc2cc(O)cc(C(=O)c3ccc(O)cc3)c2o1` stands 41%; under `CCc1oc2cc(OC)ccc2c1C(=O)c1ccc(O)cc1`, 92.7%.
The same measure, in the same setting: under `CCc1oc2cc(O)ccc2c1C(=O)c1ccc(OC)cc1` stands 48.3%.
`CCc1oc2cc(O)ccc2c1C(=O)c1ccc(O)cc1`: in test [1], the inhibition at 50 µM is 92.1%. Further, in test [2], the pIC50 was 5.95.
The matching figures for `CCc1cc2c(C(=O)c3ccc(O)cc3)cc(OC)cc2o1`: 62.4% and 4.71.
Take `CCc1cc2c(C(=O)c3ccc(OC)cc3)cc(O)cc2o1`: the inhibition at 50 µM in test [1] stood at 12.4%.
The same measure, in the same setting: under `CCc1cc2c(C(=O)c3ccc(O)cc3)cc(O)cc2o1` stands 41%; under `CCc1oc2c(O)cccc2c1C(=O)c1ccc(OC)cc1`, 18.2%.
Same read-out and setting: the same measure for `CCc1cc2c(C(=O)c3ccc(OC)cc3)ccc(O)c2o1`: 0.8%.
Take `CCc1cc2c(C(=O)c3ccc(O)cc3)ccc(O)c2o1`: the inhibition at 50 µM in test [1] turned out to be 93.8%. Besides, the negative logarithm of the IC50 (pIC50) in test [2] was 5.40.
In the case of `CCc1oc2ccc(OC)cc2c1C(=O)c1cc(Br)c(O)c(Br)c1`, in test [1], the inhibition at 50 µM came to 99.9%.
As for `CCc1oc2ccc(O)cc2c1C(=O)c1cc(Br)c(O)c(Br)c1`, the inhibition at 50 µM in test [1] turned out to be 99.9%. Also, in test [2], the pIC50 was 6.72.
For `CCc1cc2c(C(=O)c3cc(Br)c(O)c(Br)c3)c(OC)ccc2o1`, the inhibition at 50 µM in test [1] came to 99.6%. Further, the pIC50 in test [2] was 6.45.
In the same order, the values of `CCc1cc2c(C(=O)c3cc(Br)c(O)c(Br)c3)c(O)ccc2o1` are 99.9% and 7.08.
As for `CCc1cc2cc(OC)cc(C(=O)c3cc(Br)c(O)c(Br)c3)c2o1`, the inhibition at 50 µM in test [1] stood at 99%.
For the compound `CCc1cc2cc(O)cc(C(=O)c3cc(Br)c(O)c(Br)c3)c2o1`, the inhibition at 50 µM in test [1] stood at 99.8%.
Same read-out and setting: the same measure for `CCc1oc2cc(OC)ccc2c1C(=O)c1cc(Br)c(O)c(Br)c1`: 99.9%.
`CCc1cc2c(C(=O)c3cc(Br)c(O)c(Br)c3)cc(Br)c(O)c2o1`: the inhibition at 50 µM in test [1] came out at 99.9%. Moreover, the pIC50 in test [2] is 6.75.
`CCc1oc2cc(Br)c(O)c(Br)c2c1C(=O)c1ccc(OC)cc1`: the inhibition at 50 µM in test [1] worked out at 76.5%. The pIC50 in test [2] was 4.63.
The matching figures for `CCc1oc2c(Br)c(O)c(Br)cc2c1C(=O)c1ccc(OC)cc1`: 99.8% and 6.18.
Turning to `CCc1cc2c(C(=O)c3ccc(OC)cc3)cc(Br)c(O)c2o1`, in test [1], the inhibition at 50 µM came out at 99.3%. Also, the pIC50 in test [2] was 6.11.
Turning to `CCc1oc2ccccc2c1C(=O)c1ccc(O)cc1` [BENZARONE], in test [1], the inhibition at 50 µM amounted to 90.8%.
Still for that read-out and setting: the same measure for `CCc1oc2ccccc2c1C(=O)c1cc(Br)c(O)c(Br)c1` [BENZBROMARONE]: 99.9%.
As for `CCCN(CCC)S(=O)(=O)c1ccc(C(=O)O)cc1` [PROBENECID], the inhibition at 50 µM in test [1] came out at 35.7%.
